Assay results from patent publication US10844049B2, “GLP-1R agonists and uses thereof” (QILU REGOR THERAPEUTICS INC., priority 2018, dated 2020).

Biological target: GLP1R (Homo sapiens, UniProt P43220)
Test: GLP1R cAMP HTRF assay, HEK293/GLP-1R/CRE/Luc (HEK293T cells)
Format: cell-based
Settings: read-out: EC50
Procedure, shortened: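 cAMP accumulation via HTRF after 30 min, 37 °C exposure of 1000 receptor-expressing cells/well to compound (0.5% DMSO final) in IBMX (500 μM)/0.1% BSA DPBS.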

Sequence of GLP1R (P43220 24-463): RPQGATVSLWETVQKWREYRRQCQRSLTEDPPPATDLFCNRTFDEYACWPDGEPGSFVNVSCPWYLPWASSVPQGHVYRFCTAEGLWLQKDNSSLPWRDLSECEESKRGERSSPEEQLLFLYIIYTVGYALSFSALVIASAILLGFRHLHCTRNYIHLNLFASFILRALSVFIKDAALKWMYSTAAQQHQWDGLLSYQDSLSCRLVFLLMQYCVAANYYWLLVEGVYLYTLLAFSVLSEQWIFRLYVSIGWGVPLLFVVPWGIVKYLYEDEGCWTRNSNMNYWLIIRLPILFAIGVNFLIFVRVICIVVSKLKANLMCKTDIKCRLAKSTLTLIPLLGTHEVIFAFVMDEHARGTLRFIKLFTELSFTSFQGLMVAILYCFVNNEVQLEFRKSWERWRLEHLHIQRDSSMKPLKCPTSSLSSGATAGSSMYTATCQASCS

EC50 | Structure (SMILES)
≤ 15 nM | O=C(O)c1ccc2nc(CN3CC=C(c4ccc(F)c(NCc5ccc(Cl)cc5F)c4)CC3)n(C[C@@H]3CCO3)c2c1 [Compound 129, (S)-2-((4-(3-((4-chloro-2-fluorobenzyl)amino)-4-fluorophenyl)-3,6-dihydropyridin-1(2H)-yl)methyl)-1-(oxetan-2-ylmethyl)-1H-benzo[d]imidazole-6-carboxylic acid]
≤ 15 nM | O=C(O)c1ccc2nc(CN3CCN(c4nccc(OCc5ccc(Cl)cc5F)n4)CC3)n(C[C@@H]3CCO3)c2c1 [Compound 181, (S)-2-((4-(4-((4-chloro-2-fluorobenzyl)oxy)pyrimidin-2-yl)piperazin-1-yl)methyl)-1-(oxetan-2-ylmethyl)-1H-benzo[d]imidazole-6-carboxylic acid]
≤ 150 nM | N#Cc1ccc(COc2cccc(N3CCC(Cc4nc5ccc(C(=O)O)c(F)c5n4C[C@@H]4CCO4)CC3)n2)nc1 [Compound 233, (S)-2-((l-(6-((5-cyanopyridin-2-yl)methoxy)pyridin-2-yl)piperidin-4-yl)methyl)-7-fluoro-1-(oxetan-2-ylmethyl)-1H-benzo[d]imidazole-6-carboxylic add]
≤ 15 nM | O=C(O)c1cc2c(cc1F)nc(CN1CC=C(c3cccc(OCc4ccc(Cl)cc4F)n3)CC1)n2C[C@@H]1CCO1 [Compound 172, (S)-2-((6-((4-chloro-2-fluorobenzyl)oxy)-3′,6′-dihydro-[2H′-bipyridin]-1′(2′H)-yl)methyl)-5-fluoro-1-(oxetan-2-ylmethyl)-1H-benzo[d]imidazole-6-carboxylic acid]
≤ 150 nM | N#Cc1ccc(COc2cccc(N3CC=C(Cc4nc5ccc(C(=O)O)cc5n4C[C@@H]4CCO4)CC3)n2)c(F)c1 [Compound 240, (S)-2-((6′-((4-cyano-2-fluorobenzyl)oxy)-3,6-dihydro-2H-[1,2′-bipyridin]-4-yl)methyl)-1-(oxetan-2-ylmethyl)-1H-benzo[d]imidazole-6-carboxylic add]
≤ 1000 nM | O=C(O)c1ccc2nc(CN3CC=C(c4cccc(OCc5cnccn5)n4)CC3)n(C[C@@H]3CCO3)c2c1 [Compound 165, (S)-1-(oxetan-2-ylmethyl)-2-((6-(pyrazin-2-ylmethoxy)-3′,6′-dihydro-[2,4′-bipyridin]-1′(2′H)-yl)methyl)-1H-benzo[d]imidazole-6-carboxylic acid]
≤ 15 nM | O=C(O)c1ccc2nc(CN3CC=C(c4ncc(F)c(OCc5ccc(Cl)cc5F)n4)CC3)n(C[C@@H]3CCO3)c2c1 [Compound 123]
≤ 150 nM | O=C(O)c1ccc2nc(CN3CC=C(c4cc(F)c(F)c(OCc5ccc(C#CC6CC6)cc5F)c4)CC3)n(C[C@@H]3CCO3)c2c1 [Compound 203, (S)-2-((4-(3-(4-(cyclopropylethynyl)-2-fluorobenzyloxy)-4,5-difluorophenyl)-5,6-dihydropyridin-1(2H)-yl)methyl)-1-(oxetan-2-ylmethyl)-1H-benzo[d]imidazole-6-carboxylic acid]
≤ 15 nM | N#Cc1ccc(COc2nc(C3=CCN(Cc4nc5ccc(C(=O)O)cc5n4C[C@@H]4CCO4)CC3)c(F)cc2F)c(F)c1 [Compound 212, (S)-2-((6-((4-cyano-2-fluorobenzyl)oxy)-3,5-difluoro-3′,6′-dihydro-[2,4′-bipyridin]-1′(2′H)-yl)methyl)-1-(oxetan-2-ylmethyl)-1H-benzo[d]imidazole-6-carboxylic add]
≤ 15 nM | O=C(O)c1ccc2nc(CN3CC=C(c4cccc(OCc5ccc(Cl)cc5Cl)n4)CC3)n(C[C@@H]3CCO3)c2c1 [Compound 114, (S)-2-((6-((2,4-dichlorobenzyl)oxy)-3′,6′-dihydro-[2,4′-bipyridin]-1′(2′H)-yl)methyl)-1-(oxetan-2-ylmethyl)-1H-benzo[d]imidazole-6-carboxylic add]
≤ 15 nM | O=C(O)c1ccc2nc(CN3CCN(c4cccc(OCc5ccc(Cl)cc5F)n4)C(=O)C3)n(C[C@@H]3CCO3)c2c1 [Compound 55, (S)-2-((4-(6-((4-chloro-2-fluorobenzyl)oxy)pyridin-2-yl)-3-oxopiperazin-1-yl)methyl)-1-(oxetan-2-ylmethyl)-1H-benzo[d]imidazole-6-carboxylic acid]
≤ 15 nM | O=C(O)c1ccc2nc(CN3CC=C(c4cccc(OCc5ccc(-n6ccnc6)cc5)n4)CC3)n(C[C@@H]3CCO3)c2c1 [Compound 154, (S)-2-((6-((4-(1H-imidazol-1-yl)benzyl)oxy)-3′,6′-dihydro-[2,4′-bipyridin]-1′(2′H)-yl)methyl)-1-(oxetan-2-ylmethyl)-1H-benzo[d]imidazole-6-carboxylic acid]
≤ 15 nM | N#Cc1ccc(COc2ccc(F)c(C3=CCN(Cc4nc5ccc(C(=O)O)cc5n4C[C@@H]4CCO4)CC3)n2)c(F)c1 [Compound 223, (S)-2-((6-((4-cyano-2-fluorobenzyl)oxy)-3-fluoro-3′,6′-dihydro-[2,4′-bipyridin]-1(2′H)-yl)methyl)-1-(oxetan-2-ylmethyl)-1H-benzo[d]imidazole-6-carboxylic acid]
> 1000 nM | O=C(O)c1ccc2nc(CN3CCCN(c4cccc(OCc5ccc(Cl)cc5F)n4)C(=O)C3)n(C[C@@H]3CCO3)c2c1 [Compound 56, (S)-2-((4-(6-((4-chloro-2-fluorobenzyl)oxy)pyridin-2-yl)-3-oxo-1,4-diazepan-1-yl)methyl)-1-(oxetan-2-ylmethyl)-1H-benzo[d]imidazole-6-carboxylic acid]
≤ 150 nM | O=C(O)c1ccc2nc(CN3CC=C(c4cccc(N5CCc6cc(Cl)ccc6C5)n4)CC3)n(C[C@@H]3CCO3)c2c1 [Compound 39, (S)-2-((6-(6-chloro-3,4-dihydroisoquinolin-2(1H)-yl)-3′,6′-dihydro-[2,4′-bipyridin]-1′(2′H)-yl)methyl)-1-(oxetan-2-ylmethyl)-1 h-benzo[d]imidazole-6-carboxylic add]
≤ 15 nM | N#Cc1ccc(COc2ncc(F)c(C3=CCN(Cc4nc5ccc(C(=O)O)cc5n4C[C@@H]4CCO4)CC3)n2)c(F)c1 [Compound 210, (S)-2-((4-(2-(4-cyano-2-fluorobenzyloxy)-5-fluoropyrimidin-4-yl)-5,6-dihydropyridin-1(2H)-yl)methyl)-1-(oxetan-2-ylmethyl)-1H-benzo[d]imidazole-6-carboxylic add]
≤ 15 nM | O=C(O)c1ccc2nc(CN3CC=C(c4cc(F)c(F)c(OCc5ccc(Cl)cc5F)c4)CC3)n(C[C@@H]3CCO3)c2c1 [Compound 41, (S)-2-((4-(3-(4-chloro-2-fluorobenzyloxy)-4,5-difluorophenyl)-5,6-dihydropyridin-1(2H)-yl)methyl)-1-(oxetan-2-ylmethyl)-1 h-benzo[d]imidazole-6-carboxylic acid]
≤ 15 nM | O=C(O)c1ccc2nc(CN3CC=C(c4nc(NCc5ccc(Cl)cc5F)c(F)cc4F)CC3)n(C[C@@H]3CCO3)c2c1 [Compound 133, (S)-2-((4-(6-(4-chloro-2-fluorobenzylamino)-3,5-difluoropyridin-2-yl)-5,6-dihydropyridin-1(2H)-yl)methyl)-1-(oxetan-2-ylmethyl)-1H-benzo[d]imidazole-6-carboxylic acid]
≤ 1000 nM | O=C(O)c1ccc2nc(CN3CC=C(c4cccc(OCc5c(Cl)cccc5Cl)n4)CC3)n(C[C@@H]3CCO3)c2c1 [Compound 138]
≤ 15 nM | C#Cc1ccc(COc2cccc(C3=CCN(Cc4nc5ccc(C(=O)O)cc5n4C[C@@H]4CCO4)CC3)n2)c(F)c1 [Compound 68, (S)-2-((6-((4-ethynyl-2-fluorobenzyl)oxy)-3‘f’-dihydro-[2,4′-bipyridin]-1′(2′H)-yl)methyl)-1-(oxetan-2-ylmethyl)-1H-benzo[d]imidazole-6-carboxylic acid]
